Data taken from ChEMBL document CHEMBL6103618, “Discovery of Novel Oxazolo[4,3-f]purine Derivatives as Antitumor Agents through PPIA Interaction” (J Med Chem, 2025).
Activity calls are given as the source filed them. The calls are words filed in the database; no cut-off is given here.

Experiments:
HCT-116 [1] = experiment: Induction of apoptosis in human HCT-116 cells harboring siPPIA-3 assessed as necrotic cells at 1.2 uM by Annexin V-FITC/PI staining based flow cytometry (reference value: 0.87 %); assay type: functional
SW480 = experiment: Antiproliferative activity against human SW480 cells assessed as inhibition of cell viability incubated for 48 hrs by CCK8 assay; assay type: functional, cell-based; details: SW480, 48 h
HCT-116 [2] = experiment: Inhibition of cell viability in human HCT-116 cells at 0.3 to 1.2 uM incubated for 48 hrs in presence of NAC; assay type: functional, cell-based; details: dose 0.3-1.2 µM
Homo sapiens = species: Homo sapiens; experiment: Disruption of PPIA/CD147 (unknown origin) interaction by Co-IP assay
HCT-116 [3] = experiment: Inhibition of colony formation in human HCT-116 cells harboring siPPIA-3 at 1.2 uM incubated for 48 hrs followed by fresh media replacement without compound on every 72 hrs for 14 days by crystal violet staining based analysis; assay type: functional, cell-based
CT26 [4] = experiment: Antitumor activity against mouse CT26 cells implanted in BALB/c mouse assessed as decrease in Ki67 level at 15 to 45 mg/kg, ip qd treated for 14 days by IHC analysis; assay type: functional, organism-based; details: dose 15-45 mg/kg, time 14.0 day
HCT-116 [5] = experiment: Induction of apoptosis in human HCT-116 cells assessed as decrease in p-p38 level by Western blot analysis; assay type: functional, cell-based; details: dose 0.3-1.2 µM
HCT-116 [6] = experiment: Anti-migration activity in human HCT-116 cells harboring siPPIA-3 at 1.2 uM incubated for 24 hrs by wound healing assay; assay type: functional, cell-based
HCT-116 [7] = experiment: Effect on COTL1 expression in human HCT-116 cells upto 6 uM incubated for 30 mins followed by pronase addition measured after 30 mins by DARTS assay; assay type: functional, cell-based
HCT-116 [8] = experiment: Anti-proliferative activity against human HCT-116 cells harboring siPPIA-3 assessed as decrease in p-p38 level at 1.2 uM by Western blot analysis; assay type: functional, cell-based
HCT-116 [9] = experiment: Anti-proliferative activity against human HCT-116 cells harboring siNC assessed as decrease in p-JNK level at 1.2 uM by Western blot analysis; assay type: functional, cell-based
HCT-116 [10] = experiment: Induction of apoptosis in human HCT-116 cells assessed as increase in p53 level at 1.2 uM in presence of NAC by Western blot analysis; assay type: functional, cell-based
CT26 [11] = experiment: Antitumor activity against mouse CT26 cells implanted in BALB/c mouse assessed as reduction in tumor volume administered intraperitoneally once daily for 14 days; assay type: functional; details: dose 15-45 mg/kg, route ip, time 14.0 day
HCT-116 [12] = experiment: Induction of DNA damage in human HCT-116 cells assessed as increase in gamma-H2AX level at 0.3 to 1.2 uM incubated for 48 hrs by Western blot analysis; assay type: functional, cell-based; details: dose 0.3-1.2 µM
HCT-116 [13] = experiment: Induction of apoptosis in human HCT-116 cells assessed as increase in cleaved caspase-3 level at 0.3 to 1.2 uM incubated for 48 hrs by Western blot analysis; assay type: functional, cell-based; details: dose 0.3-1.2 µM
[14] = Acute toxicity in BALB/c mouse assessed as lethal dose administered intraperitoneally measured for 14 days; details: in vivo, route ip, time 14 day
[15] = Toxicity in BALB/c mouse implanted with mouse CT26 cells assessed as injury in heart at 15 to 45 mg/kg, ip qd treated for 14 days by H and E staining based analysis; assay type: organism-based; details: in vivo, 336 h, dose 15-45 mg/kg, time 14 day
CT26 [16] = experiment: Antitumor activity against mouse CT26 cells implanted in BALB/c mouse assessed as tumor growth inhibition administered intraperitoneally once daily for 14 days; assay type: functional; details: dose 15-45 mg/kg, route ip, time 14.0 day
HCT-116 [17] = experiment: Induction of apoptosis in human HCT-116 cells assessed as decrease in p-ERK1/2 level by Western blot analysis; assay type: functional, cell-based; details: dose 0.3-1.2 µM
CT26 [18] = experiment: Antiproliferative activity against mouse CT26 cells assessed as inhibition of cell viability incubated for 48 hrs by CCK8 assay; assay type: functional, cell-based; details: CT26, 48 h
HCT-116 [19] = experiment: Induction of cell cycle arrest in human HCT-116 cells assessed as accumulation at S phase at 0.3 uM incubated for 48 hrs by PI staining based flow cytometry (reference value: 34.55 %); assay type: functional
MCF7 = experiment: Antiproliferative activity against human MCF7 cells assessed as inhibition of cell viability incubated for 48 hrs by CCK8 assay; assay type: functional, cell-based; details: MCF7, 48 h
HCT-116 [20] = experiment: Effect on NME1 expression in human HCT-116 cells upto 6 uM incubated for 30 mins followed by pronase addition measured after 30 mins by DARTS assay; assay type: functional, cell-based; details: time 60.0 min
HCT-116 [21] = experiment: Effect on SET expression in human HCT-116 cells upto 6 uM incubated for 30 mins followed by pronase addition measured after 30 mins by DARTS assay; assay type: functional, cell-based
[22] = Toxicity in BALB/c mouse implanted with mouse CT26 cells assessed as abnormality in liver at 15 to 45 mg/kg, ip qd treated for 14 days by H and E staining based analysis; assay type: organism-based; details: in vivo, 336 h, dose 15-45 mg/kg, time 14 day
CT26 [23] = experiment: Antitumor activity against mouse CT26 cells implanted in BALB/c mouse assessed as necrosis in tumor tissue at 15 to 45 mg/kg, ip qd treated for 14 days by H and E staining based analysis; assay type: functional, organism-based; details: dose 15-45 mg/kg, time 14.0 day
[24] = Stability in mouse plasma assessed as half life measured upto 24 hrs by HPLC analysis; assay type: ADME, cell-free
HCT-116 [25] = experiment: Anti-proliferative activity against human HCT-116 cells harboring siPPIA-3 assessed as decrease in p-ERK1/2 level at 1.2 uM by Western blot analysis; assay type: functional, cell-based
HCT-116 [26] = experiment: Induction of ER stress in human HCT-116 cells at 0.3 to 1.2 uM incubated for 48 hrs by ER-Tracker Red dye based analysis; assay type: functional, cell-based; details: dose 0.3-1.2 µM
HCT-116 [27] = experiment: Effect on VCP expression in human HCT-116 cells upto 6 uM incubated for 30 mins followed by pronase addition measured after 30 mins by DARTS assay; assay type: functional, cell-based
[28] = target: Peptidyl-prolyl cis-trans isomerase A (Homo sapiens, UniProt P62937); experiment: Binding affinity to PPIA in human HCT-116 cells assessed as increase in thermal stability at 16 uM incubated for 30 mins followed by heat exposure at 40 to 60 degreeC for 3 mins by CETSA; assay type: cell-based; details: time 33.0 min
Peptidyl-prolyl cis-trans isomerase A, sequence (P62937 whole entry, looked up): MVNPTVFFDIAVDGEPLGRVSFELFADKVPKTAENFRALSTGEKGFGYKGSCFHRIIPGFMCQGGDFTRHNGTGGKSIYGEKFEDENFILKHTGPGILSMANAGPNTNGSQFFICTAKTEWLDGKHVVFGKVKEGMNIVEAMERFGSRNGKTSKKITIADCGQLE

HCT-116 [29] = experiment: Induction of apoptosis in human HCT-116 cells assessed as necrotic cells at 0.3 uM incubated for 48 hrs by Annexin V-FITC/PI staining based flow cytometry (reference value: 1.15 %); assay type: functional
CT26 [30] = experiment: Antitumor activity against mouse CT26 cells implanted in BALB/c mouse assessed as reduction in tumor weight administered intraperitoneally once daily for 14 days; assay type: functional; details: dose 15-45 mg/kg, route ip, time 14.0 day
HCT-116 [31] = experiment: Induction of apoptosis in human HCT-116 cells harboring siNC assessed as necrotic cells at 1.2 uM by Annexin V-FITC/PI staining based flow cytometry (reference value: 0.21 %); assay type: functional
HCT-116 [32] = experiment: Induction of cell cycle arrest in human HCT-116 cells assessed as accumulation at G1 phase at 0.6 uM incubated for 48 hrs by PI staining based flow cytometry (reference value: 59.37 %); assay type: functional
HCT-116 [33] = experiment: Induction of mitochondrial dysfunction in human HCT-116 cells at 0.3 to 1.2 uM incubated for 48 hrs by Mito-Tracker Green probe based analysis; assay type: functional, cell-based; details: dose 0.3-1.2 µM
HCT-116 [34] = experiment: Induction of apoptosis in human HCT-116 cells assessed as late apoptotic cells at 1.2 uM incubated for 48 hrs by Annexin V-FITC/PI staining based flow cytometry (reference value: 1.55 %); assay type: functional

C=C(C(=O)OC)N1c2nc(Cl)nc(Cl)c2N2C(c3ccccc3F)OC(C(=O)OCC)(C(=O)OCC)C12 (racemic)
Activity (HCT-116 [1]): 1.09% | IC50 (SW480): 2590 nM | inhibition (HCT-116 [2]): inactive | Activity (Homo sapiens): Active | inhibition (HCT-116 [3]): inactive | Activity (CT26 [4]): Active | Activity (HCT-116 [5]): Dose-dependent-effect | Activity (HCT-116 [6]): inactive | Activity (HCT-116 [7]): No effect | Activity (HCT-116 [8]): inactive | Activity (HCT-116 [9]): Active | Activity (HCT-116 [10]): inactive | Activity (CT26 [11]): Dose-dependent-effect | Activity (HCT-116 [12]): Active | Activity (HCT-116 [13]): Active | LD50 at 336 h [14]: 453 mg/kg | Activity [15]: Non-toxic | inhibition (CT26 [16]): Dose-dependent-effect | Activity (HCT-116 [17]): Dose-dependent-effect | IC50 (CT26 [18]): 860 nM | Activity (HCT-116 [19]): 27.89% | IC50 (MCF7): 1190 nM | Activity (HCT-116 [20]): No effect | Activity (HCT-116 [21]): No effect | Activity [22]: Non-toxic | Activity (CT26 [23]): Active | half-life [24]: 4.78 h | Activity (HCT-116 [25]): inactive | Activity (HCT-116 [26]): Active | Activity (HCT-116 [27]): No effect | Activity [28]: Active; Activity Similar To Csa | Activity (HCT-116 [29]): 1.8% | Activity (CT26 [30]): Dose-dependent-effect | Activity (HCT-116 [31]): 0.57% | Activity (HCT-116 [32]): 66.32% | Activity (HCT-116 [33]): Active | Activity (HCT-116 [34]): 8.35%
